From US20240360148A1 (SUVALENT THERAPEUTICS, INC., priority 2021, published 2024) come the findings set out here.

The test concerns the target SAE1 (Homo sapiens (Human), UniProt Q9UBE0+Q9UBT2). Description: SAE High Throughput Biochemical Assay (HTRF), 15 min preincubation. Particulars: read-out: 15 min preincubation HTRF IC50 (μM) Ave, SAE1 12.5 nM, ATP 100 μM. As to the method: Assay buffer was prepared [50 mM HEPES, pH 7.5, 0.1% BSA and 10 mM MgCl2] as was the Stop Buffer [100 mM HEPES, pH 7.5, 0.05% Tween20, and 410 mM KF]. The 2×Reaction Buffer [80 nM SUMO-GST, 80 nM UBC9-His, 200 μM ATP and diluted in Assay Buffer] and Antibody Reaction Mix [13.34 nM anti-GSTXL665, 1.66 nM anti-His EuK and Diluted in Stop Buffer] were also prepared. Compounds were dissolved at 200×in DMSO in a 384-well plate. Serial dilutions were performed in DMSO for each compound, and then each concentration was diluted another 50-fold in Assay Buffer, to 4× the final concentration. 2.5 μL of each concentration was transferred into its own well in a 384-well plate. SAE1 was then diluted to 4× in Assay Buffer, and 2.5 μL of 4×SAE1 was mixed into each compound-containing well. After incubating for 15 minutes at RT, 5 μL of 2×Reaction Buffer was mixed into every well. Then after another 45 minutes at RT, 10 μL of Antibody Reaction Mix was added and mixed into every well. This plate was then read on an HTRF-compatible plate reader after 2 hours at RT, and again after sitting at RT overnight. [Final Component Concentrations: SAE1: 12.5 nM; SUMO-GST: 40 nM; UBC9-His: 40 nM; Anti-GST-XL665: 6.67 nM; Anti-His-EuK: 0.83 nM; and ATP: 100 μM] Alternatively, the compounds are tested at a single concentration of 25 micromolar and the percent of control is measured.
(In general: In TR-FRET formats the signal depends on donor and acceptor labels being close together.)

Sequence of SAE1 (Q9UBE0 whole entry): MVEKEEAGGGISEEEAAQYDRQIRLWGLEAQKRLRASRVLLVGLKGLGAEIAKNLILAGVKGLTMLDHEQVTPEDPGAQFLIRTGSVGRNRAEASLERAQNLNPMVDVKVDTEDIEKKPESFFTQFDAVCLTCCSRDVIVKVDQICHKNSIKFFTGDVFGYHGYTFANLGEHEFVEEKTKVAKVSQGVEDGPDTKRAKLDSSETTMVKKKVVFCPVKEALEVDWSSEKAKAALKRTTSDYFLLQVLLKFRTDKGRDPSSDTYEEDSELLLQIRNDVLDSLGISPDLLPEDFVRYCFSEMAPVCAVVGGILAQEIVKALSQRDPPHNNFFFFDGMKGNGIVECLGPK
Sequence of SAE1 (Q9UBT2 whole entry): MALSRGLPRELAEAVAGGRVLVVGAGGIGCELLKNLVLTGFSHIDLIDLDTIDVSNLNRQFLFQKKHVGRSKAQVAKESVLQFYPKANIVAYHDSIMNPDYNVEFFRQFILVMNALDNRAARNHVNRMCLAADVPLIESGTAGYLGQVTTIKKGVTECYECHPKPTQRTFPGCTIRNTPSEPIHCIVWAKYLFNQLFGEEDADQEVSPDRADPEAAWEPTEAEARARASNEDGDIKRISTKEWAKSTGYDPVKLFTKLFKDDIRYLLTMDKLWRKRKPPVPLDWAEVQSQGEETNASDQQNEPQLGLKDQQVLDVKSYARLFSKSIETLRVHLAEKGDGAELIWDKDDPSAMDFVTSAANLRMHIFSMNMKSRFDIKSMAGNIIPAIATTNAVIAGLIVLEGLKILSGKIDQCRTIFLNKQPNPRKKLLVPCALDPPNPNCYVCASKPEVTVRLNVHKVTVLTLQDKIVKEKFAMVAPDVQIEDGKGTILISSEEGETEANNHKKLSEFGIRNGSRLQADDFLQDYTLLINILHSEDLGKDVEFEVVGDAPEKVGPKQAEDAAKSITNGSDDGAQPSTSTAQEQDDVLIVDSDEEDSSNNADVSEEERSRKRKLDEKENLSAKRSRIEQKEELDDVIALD

Consider `CCn1cc(-c2ccccc2[C@@H]2CN(C(=O)/C=C/CCN(C)C)Cc3sc(C#N)cc32)c(C(F)(F)F)n1` [Example 16], for which the IC50 (in general, the concentration needed to halve the response being measured) is 18.1 µM. Regarding `CCn1cc(-c2ccccc2[C@@H]2CN(C(=O)/C=C/CN3CCC[C@H]3C(=O)O)Cc3sc(C#N)cc32)c(C(F)(F)F)n1` [Example 6, ((E)-4-((S)-2-cyano-4-(2-(1-ethyl-3-(trifluoromethyl)-1 H-pyrazol-4-yl)phenyl)-4,7-dihydrothieno[2,3-c]pyridin-6(5H)-yl)-4-oxobut-2-en-1-yl)proline], the IC50 was found to be 7.43 µM.

For the compound `CN(C)C/C=C/C(=O)N1Cc2sc(C#N)cc2[C@H](c2ccccc2-c2cn(-c3ccnc(N)c3)nc2C(F)(F)F)C1` [Example 160, (S, E)-4-(2-(1-(2-Aminopyridin-4-yl)-3-(trifluoromethyl)-1 H-pyrazol-4-yl)phenyl)-6-(4-(dimethylamino)but-2-enoyl)-4,5,6,7-tetrahydrothieno[2,3-c]pyridine-2-carbonitrile], the half-inhibitory concentration (IC50) is 24.4 µM.

In the case of `CCn1cc(-c2cc(NC(C)=O)ccc2C2CN(C(=O)/C=C/CN(C)C)Cc3sc(C#N)cc32)c(C(F)(F)F)n1` (centres unmarked) [Example 197, (E)-N-(4-(2-Cyano-6-(4-(dimethylamino)but-2-enoyl)-4,5,6,7-tetrahydrothieno[2,3-c]pyridin-4-yl)-3-(1-ethyl-3-(trifluoromethyl)-1 H-pyrazol-4-yl)phenyl)acetamide], the IC50 is 15.2 µM. On to `CCn1cc(-c2ccccc2[C@@H]2CN(C(=O)/C=C/CN3CCC(c4ccccc4)C3)Cc3sc(C#N)cc32)c(C(F)(F)F)n1` (stereo partly drawn) [Example 35, (4S)-4-(2-(1-ethyl-3-(trifluoromethyl)-1 H-pyrazol-4-yl)phenyl)-6-((E)-4-(3-phenylpyrrolidin-1-yl)but-2-enoyl)-4,5,6,7-tetrahydrothieno[2,3-c]pyridine-2-carbonitrile], for which the IC50 was above 25 µM. As to `CCn1cc(-c2cc(Cl)ccc2C2CN(C(=O)/C=C/CN(C)C)Cc3sc(C#N)cc32)c(C(F)(F)F)n1` (centres unmarked) [Example 212, (E)-4-(4-Chloro-2-(1-ethyl-3-(trifluoromethyl)-1 H-pyrazol-4-yl)phenyl)-6-(4-(dimethylamino)but-2-enoyl)-4,5,6,7-tetrahydrothieno[2,3-c]pyridine-2-carbonitrile], the IC50 is 11.7 µM. As to `CCn1cc(-c2ccccc2[C@@H]2CN(C(=O)/C=C/C3(N)CC3)Cc3sc(C#N)cc32)c(C(F)(F)F)n1` [Example 109, (S, E)-6-(3-(1-Aminocyclopropyl)acryloyl)-4-(2-(1-ethyl-3-(trifluoromethyl)-1 H-pyrazol-4-yl)phenyl)-4,5,6,7-tetrahydrothieno[2,3-c]pyridine-2-carbonitrile], the IC50 was determined as 26.5 µM. With `CCn1cc(-c2ccccc2[C@@H]2CN(C(=O)C#CC3CCCNC3)Cc3sc(C#N)cc32)c(C(F)(F)F)n1` (stereo partly drawn) [Example 145, (4S)-4-(2-(1-Ethyl-3-(trifluoromethyl)-1 H-pyrazol-4-yl)phenyl)-6-(3-(piperidin-3-yl)propioloyl)-4,5,6,7-tetrahydrothieno[2,3-c]pyridine-2-carbonitrile], the IC50 was determined as 5.62 µM. With `CCn1cc(-c2c(F)cccc2[C@@H]2CN(C(=O)/C=C/[C@@H](C)NC)Cc3sc(C#N)cc32)c(C(F)(F)F)n1` [Example 88, (S)-4-(2-(1-Ethyl-3-(trifluoromethyl)-1H pyrazol-4-yl)-3-fluorophenyl)-6-((R,E)-4-(methylamino)pent-2-enoyl)-4,5,6,7-tetrahydrothieno[2,3-c]pyridine-2-carbonitrile], the IC50 came out at 2.7 µM.

As to `C=C(C(=O)N1Cc2sc(C#N)cc2[C@H](c2ccccc2-c2cn(CC)nc2C(F)(F)F)C1)c1ccccc1` [Example 63, (S)-4-(2-(1-Ethyl-3-(trifluoromethyl)-1H pyrazol-4-yl)phenyl)-6-(2-phenylacryloyl)-4,5,6,7-tetrahydrothieno[2,3-c]pyridine-2-carbonitrile], the half-inhibitory concentration (IC50) is above 25 µM. The same measure for `CCn1cc(-c2ccccc2[C@@H]2CN(C(=O)/C=C/[C@@H](C)NC)Cc3sc(C#N)cc32)c(C(F)(F)F)n1` [Example 87, (S)-4-(2-(1-Ethyl-3-(trifluoromethyl)-1 H-pyrazol-4-yl)phenyl)-6-((R, E)-4-(methylamino)pent-2-enoyl)-4,5,6,7-tetrahydrothieno[2,3-c]pyridine-2-carbonitrile]: 18.2 µM. As for `CC(C(=O)N(C)C)n1cc(-c2ccccc2[C@@H]2CN(C(=O)/C=C/CN(C)C)Cc3sc(C#N)cc32)c(C(F)(F)F)n1` (stereo partly drawn) [Example 164, 2-(4-(2-((S)-2-Cyano-6-((E)-4-(dimethylamino)but-2-enoyl)-4,5,6,7-tetrahydrothieno[2,3-c]pyridin-4-yl)phenyl)-3-(trifluoromethyl)-1 H-pyrazol-1-yl)-N, N-dimethylpropanamide], the IC50 was 10.9 µM.

For the compound `CCn1cc(-c2ccccc2[C@@H]2CN(C(=O)/C=C/C(c3ccccc3)N(C)C)Cc3sc(C#N)cc32)c(C(F)(F)F)n1` (stereo partly drawn) [Example 26, (4S)-6-((E)-4-(Dimethylamino)-4-phenylbut-2-enoyl)-4-(2-(1-ethyl-3-(trifluoromethyl)-1 H-pyrazol-4-yl)phenyl)-4,5,6,7-tetrahydrothieno[2,3-c]pyridine-2-carbonitrile], the IC50 is 7.92 µM. `CCn1cc(-c2c(F)cccc2[C@@H]2CN(C(=O)/C=C/CNC3CCN(C(C)=O)C3)Cc3sc(C#N)cc32)c(C(F)(F)F)n1` (stereo partly drawn) [Example 58, (4S)-6-((E)-4-((1-acetylpyrrolidin-3-yl)amino)but-2-enoyl)-4-(2-(1-ethyl-3-(trifluoromethyl)-1 H-pyrazol-4-yl)-3-fluorophenyl)-4,5,6,7-tetrahydrothieno[2,3-c]pyridine-2-carbonitrile]: the IC50 was 6.06 µM. In the case of `C=CC(=O)N1Cc2sc(C#N)cc2C(c2ccc(N)cc2-c2cn(CC)nc2C(F)(F)F)C1` (centres unmarked) [Compound 228], the IC50 worked out at 2.07 µM. Regarding `CCn1cc(-c2c(C3CN(C(=O)/C=C/CN(C)C)Cc4sc(C#N)cc43)cnn2C)c(C(F)(F)F)n1` (centres unmarked) [Example 198, (E)-6-(4-(Dimethylamino)but-2-enoyl)-4-(1′-ethyl-2-methyl-3′-(trifluoromethyl)-1′H,2H-[3,4′-bipyrazol]-4-yl)-4,5,6,7-tetrahydrothieno[2,3-c]pyridine-2-carbonitrile], the 50% inhibitory concentration (IC50) was above 25 µM. The same measure for `CN(C)C/C=C/C(=O)N1Cc2sc(C#N)cc2[C@H](c2ccccc2-c2cn(CC(F)(F)F)nc2C(F)(F)F)C1` [Example 19, (S, E)-6-(4-(Dimethylamino)but-2-enoyl)-4-(2-(1-(2,2,2-trifluoroethyl)-3-(trifluoromethyl)-1 H-pyrazol-4-yl)phenyl)-4,5,6,7-tetrahydrothieno[2,3-c]pyridine-2-carbonitrile]: 6.12 µM; for `CCn1cc(-c2c(F)cccc2[C@@H]2CN(C(=O)/C=C/[C@@H](C)NC)Cc3sc(C#N)c(C)c32)c(C(F)(F)F)n1` [Example 218, (S)-4-(2-(1-ethyl-3-(trifluoromethyl)-1 H-pyrazol-4-yl)-3-fluorophenyl)-3-methyl-6-((R, E)-4-(methylamino)pent-2-enoyl)-4,5,6,7-tetrahydrothieno[2,3-c]pyridine-2-carbonitrile]: 0.81 µM. As for `CCn1cc(-c2ccccc2C2CN(C(=O)/C=C/CN(C)C)Cc3sc(C#N)c(F)c32)c(C(F)(F)F)n1` (centres unmarked) [Example 213, (E)-6-(4-(dimethylamino)but-2-enoyl)-4-(2-(1-ethyl-3-(trifluoromethyl)-1 H pyrazol-4-yl)phenyl)-3-fluoro-4,5,6,7-tetrahydrothieno[2,3-c]pyridine-2-carbonitrile], the concentration for half-maximal inhibition (IC50) is 8.81 µM. The result for `CCn1cc(-c2cc(C)ccc2C2CN(C(=O)/C=C/CN(C)C)Cc3sc(C#N)cc32)c(C(F)(F)F)n1` (centres unmarked) [Example 210, (E)-6-(4-(Dimethylamino)but-2-enoyl)-4-(2-(1-ethyl-3-(trifluoromethyl)-1 H pyrazol-4-yl)-4-methylphenyl)-4,5,6,7-tetrahydrothieno[2,3-c]pyridine-2-carbonitrile] reads 19.7 µM; that for `CCn1cc(-c2ccccc2[C@@H]2CN(C(=O)C#CC3(N)CCC3)Cc3sc(C#N)cc32)c(C(F)(F)F)n1` [Example 137, (S)-6-(3-(1-Aminocyclobutyl)propioloyl)-4-(2-(1-ethyl-3-(trifluoromethyl)-1 H pyrazol-4-yl)phenyl)-4,5,6,7-tetrahydrothieno[2,3-c]pyridine-2-carbonitrile], 0.36 µM. Take `CN(C)C/C=C/C(=O)N1Cc2sc(C#N)cc2C(c2ccccc2-c2cn(CCC#N)nc2C(F)(F)F)C1` (centres unmarked) [Example 154, (E)-4-(2-(1-(2-Cyanoethyl)-3-(trifluoromethyl)-1H pyrazol-4-yl)phenyl)-6-(4-(dimechylamino)but-2-enoyl)-4,5,6,7-tetrahydrothieno[2,3-c]pyridine-2-carbonitrile]: the IC50 was 7.34 µM. Consider `CN(C)C/C=C/C(=O)N1Cc2sc(C#N)cc2[C@H](c2ccccc2-c2cn(-c3ncccc3F)nc2C(F)(F)F)C1` [Example 158, (S,E)-6-(4-(Dimethylamino)but-2-enoyl)-4-(2-(1-(3-fluoropyridin-2-yl)-3-(trifluoromethyl)-1H pyrazol-4-yl)phenyl)-4,5,6,7-tetrahydrothieno[2,3-c]pyridine-2-carbonitrile], for which the 50% inhibitory concentration (IC50) was 6.37 µM.
